{"source": "patent US20230085307A1", "about": "“PYRIDAZINONE COMPOUND AND HERBICIDE” (NISSAN CHEMICAL CORPORATION, priority 2019, published 2023)", "key": {"redroot pigweed [1]": {"tested_on": "redroot pigweed", "assay": "Test Example 4: herbicidal effect by soil treatment (Table 19, symbol N)", "type": "in vivo, redroot pigweed (Amaranthus retroflexus)", "conditions": "320 g/ha", "procedure,_shortened": "(§1)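 Step 1: sow seeds in sterilized diluvial soil, cover ~1.5 cm. Step 2: spray diluted emulsion onto soil surface at predetermined rate. Step 3: greenhouse, 25–30° C, three weeks. Step 4: grade effect on each plant by earlier criteria.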"}, "persian speedwell [2]": {"tested_on": "persian speedwell", "assay": "Test Example 4: herbicidal effect by soil treatment (Table 19, symbol R)", "type": "in vivo, Persian speedwell (Veronica persica)", "conditions": "320 g/ha", "procedure,_shortened": "as §1"}, "redroot pigweed [3]": {"tested_on": "redroot pigweed", "assay": "Test Example 5: herbicidal effect by foliage application, plastic box (Table 20, symbol N)", "type": "in vivo, redroot pigweed (Amaranthus retroflexus)", "conditions": "foliage application, 320 g/ha, evaluated three weeks after application", "procedure,_shortened": "(§2)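 Foliar spray test: emulsion formulation diluted in water to a set application rate, sprayed onto 14-day-old plants raised in diluvial soil at 25° C to 30° C under glass. Both herbicidal effect and crop effect rated visually three weeks later.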"}, "Italian ryegrass [4]": {"tested_on": "Italian ryegrass", "assay": "Test Example 4: herbicidal effect by soil treatment (Table 19, symbol K)", "type": "in vivo, Italian ryegrass (Lolium multiflorum)", "conditions": "320 g/ha", "procedure,_shortened": "as §1"}, "lambsquarters [5]": {"tested_on": "lambsquarters", "assay": "Test Example 4: herbicidal effect by soil treatment (Table 19, symbol O)", "type": "in vivo, lambsquarters (Chenopodium album)", "conditions": "320 g/ha", "procedure,_shortened": "as §1"}, "persian speedwell [6]": {"tested_on": "persian speedwell", "assay": "Test Example 5: herbicidal effect by foliage application, plastic box (Table 20, symbol R)", "type": "in vivo, Persian speedwell (Veronica persica)", "conditions": "foliage application, 320 g/ha, evaluated three weeks after application", "procedure,_shortened": "as §2"}, "southern crabgrass [7]": {"tested_on": "southern crabgrass", "assay": "Test Example 4: herbicidal effect by soil treatment (Table 19, symbol F)", "type": "in vivo, southern crabgrass (Digitaria ciliaris)", "conditions": "320 g/ha", "procedure,_shortened": "as §1"}, "barnyard grass [8]": {"tested_on": "barnyard grass", "assay": "Test Example 4: herbicidal effect by soil treatment (Table 19, symbol H)", "type": "in vivo, barnyard grass (Echinochloa crus-galli)", "conditions": "320 g/ha", "procedure,_shortened": "as §1"}, "barnyard grass [9]": {"tested_on": "barnyard grass", "assay": "Test Example 5: herbicidal effect by foliage application, plastic box (Table 20, symbol H)", "type": "in vivo, barnyard grass (Echinochloa crus-galli)", "conditions": "foliage application, 320 g/ha, evaluated three weeks after application", "procedure,_shortened": "as §2"}, "barnyard grass [10]": {"tested_on": "barnyard grass", "assay": "Test Example 3: herbicidal effect by foliage application, Wagner pot (Table 18, symbol H)", "type": "in vivo, barnyard grass (Echinochloa crus-galli)", "conditions": "320 g/ha", "procedure,_shortened": "(§3)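 Plants were sown in alluvial soil held under 0.1–0.5 cm standing water and grown 14 days in a greenhouse at 25–30 °C. An emulsifiable formulation, water-diluted to the set dose, was then sprayed onto the foliage, and effects were scored three weeks later using previously defined criteria.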"}, "lambsquarters [11]": {"tested_on": "lambsquarters", "assay": "Test Example 5: herbicidal effect by foliage application, plastic box (Table 20, symbol O)", "type": "in vivo, lambsquarters (Chenopodium album)", "conditions": "foliage application, 320 g/ha, evaluated three weeks after application", "procedure,_shortened": "as §2"}, "rice flat sedge": {"tested_on": "rice flat sedge", "assay": "Test Example 3: herbicidal effect by foliage application, Wagner pot (Table 18, symbol E)", "type": "in vivo, rice flat sedge (Cyperus iria)", "conditions": "320 g/ha", "procedure,_shortened": "as §3"}, "velvetleaf [12]": {"tested_on": "velvetleaf", "assay": "Test Example 4: herbicidal effect by soil treatment (Table 19, symbol M)", "type": "in vivo, velvetleaf (Abutilon theophrasti)", "conditions": "320 g/ha", "procedure,_shortened": "as §1"}, "wild oat [13]": {"tested_on": "wild oat", "assay": "Test Example 4: herbicidal effect by soil treatment (Table 19, symbol I)", "type": "in vivo, wild oat (Avena fatua)", "conditions": "320 g/ha", "procedure,_shortened": "as §1"}, "windgrass [14]": {"tested_on": "windgrass", "assay": "Test Example 5: herbicidal effect by foliage application, plastic box (Table 20, symbol L)", "type": "in vivo, windgrass (Apera spica-venti)", "conditions": "foliage application, 320 g/ha, evaluated three weeks after application", "procedure,_shortened": "as §2"}, "Chinese sprangletop": {"tested_on": "Chinese sprangletop", "assay": "Test Example 3: herbicidal effect by foliage application, Wagner pot (Table 18, symbol D)", "type": "in vivo, chinese sprangletop (Leptochloa chinensis)", "conditions": "320 g/ha", "procedure,_shortened": "as §3"}, "blackgrass [15]": {"tested_on": "blackgrass", "assay": "Test Example 5: herbicidal effect by foliage application, plastic box (Table 20, symbol J)", "type": "in vivo, blackgrass (Alopecurus myosuroides)", "conditions": "foliage application, 320 g/ha, evaluated three weeks after application", "procedure,_shortened": "as §2"}, "chickweed [16]": {"tested_on": "chickweed", "assay": "Test Example 5: herbicidal effect by foliage application, plastic box (Table 20, symbol P)", "type": "in vivo, common chickweed (Stellaria media)", "conditions": "foliage application, 320 g/ha, evaluated three weeks after application", "procedure,_shortened": "as §2"}, "velvetleaf [17]": {"tested_on": "velvetleaf", "assay": "Test Example 5: herbicidal effect by foliage application, plastic box (Table 20, symbol M)", "type": "in vivo, velvetleaf (Abutilon theophrasti)", "conditions": "foliage application, 320 g/ha, evaluated three weeks after application", "procedure,_shortened": "as §2"}, "chickweed [18]": {"tested_on": "chickweed", "assay": "Test Example 4: herbicidal effect by soil treatment (Table 19, symbol P)", "type": "in vivo, common chickweed (Stellaria media)", "conditions": "320 g/ha", "procedure,_shortened": "as §1"}, "wild oat [19]": {"tested_on": "wild oat", "assay": "Test Example 5: herbicidal effect by foliage application, plastic box (Table 20, symbol I)", "type": "in vivo, wild oat (Avena fatua)", "conditions": "foliage application, 320 g/ha, evaluated three weeks after application", "procedure,_shortened": "as §2"}, "green foxtail [20]": {"tested_on": "green foxtail", "assay": "Test Example 4: herbicidal effect by soil treatment (Table 19, symbol G)", "type": "in vivo, green foxtail (Setaria viridis)", "conditions": "320 g/ha", "procedure,_shortened": "as §1"}, "Italian ryegrass [21]": {"tested_on": "Italian ryegrass", "assay": "Test Example 5: herbicidal effect by foliage application, plastic box (Table 20, symbol K)", "type": "in vivo, Italian ryegrass (Lolium multiflorum)", "conditions": "foliage application, 320 g/ha, evaluated three weeks after application", "procedure,_shortened": "as §2"}, "windgrass [22]": {"tested_on": "windgrass", "assay": "Test Example 4: herbicidal effect by soil treatment (Table 19, symbol L)", "type": "in vivo, windgrass (Apera spica-venti)", "conditions": "320 g/ha", "procedure,_shortened": "as §1"}, "southern crabgrass [23]": {"tested_on": "southern crabgrass", "assay": "Test Example 5: herbicidal effect by foliage application, plastic box (Table 20, symbol F)", "type": "in vivo, southern crabgrass (Digitaria ciliaris)", "conditions": "foliage application, 320 g/ha, evaluated three weeks after application", "procedure,_shortened": "as §2"}, "green foxtail [24]": {"tested_on": "green foxtail", "assay": "Test Example 5: herbicidal effect by foliage application, plastic box (Table 20, symbol G)", "type": "in vivo, green foxtail (Setaria viridis)", "conditions": "foliage application, 320 g/ha, evaluated three weeks after application", "procedure,_shortened": "as §2"}, "blackgrass [25]": {"tested_on": "blackgrass", "assay": "Test Example 4: herbicidal effect by soil treatment (Table 19, symbol J)", "type": "in vivo, blackgrass (Alopecurus myosuroides)", "conditions": "320 g/ha", "procedure,_shortened": "as §1"}}, "data": [{"smiles": "CON=C(C)COc1ccc(-c2sc3ccc(F)cc3c2-c2c(O)c(C)nn(C)c2=O)cc1", "note": "[2-069]", "values": [{"measurement": "herbicidal effect rating, N: redroot pigweed", "setting": "redroot pigweed [1]", "value": "5 (Herbicidal rate of 90% or more (almost completely withered))"}, {"measurement": "herbicidal effect rating, R: persian speedwell", "setting": "persian speedwell [2]", "value": "5 (Herbicidal rate of 90% or more (almost completely withered))"}, {"measurement": "herbicidal effect on N: redroot pigweed", "setting": "redroot pigweed [3]", "value": "5 (Herbicidal rate of 90% or more (almost completely withered))"}, {"measurement": "herbicidal effect rating, K: Italian ryegrass", "setting": "Italian ryegrass [4]", "value": "5 (Herbicidal rate of 90% or more (almost completely withered))"}, {"measurement": "herbicidal effect rating, O: lambsquarters", "setting": "lambsquarters [5]", "value": "5 (Herbicidal rate of 90% or more (almost completely withered))"}, {"measurement": "herbicidal effect on R: persian speedwell", "setting": "persian speedwell [6]", "value": "5 (Herbicidal rate of 90% or more (almost completely withered))"}, {"measurement": "herbicidal effect rating, F: southern crabgrass", "setting": "southern crabgrass [7]", "value": "5 (Herbicidal rate of 90% or more (almost completely withered))"}, {"measurement": "herbicidal effect rating, H: barnyard grass", "setting": "barnyard grass [8]", "value": "5 (Herbicidal rate of 90% or more (almost completely withered))"}, {"measurement": "herbicidal effect on H: barnyard grass", "setting": "barnyard grass [9]", "value": "5 (Herbicidal rate of 90% or more (almost completely withered))"}, {"measurement": "herbicidal effect on H (barnyard grass), rating 0-5", "setting": "barnyard grass [10]", "value": "5 (Herbicidal rate of 90% or more (almost completely withered))"}, {"measurement": "herbicidal effect on O: lambsquarters", "setting": "lambsquarters [11]", "value": "5 (Herbicidal rate of 90% or more (almost completely withered))"}, {"measurement": "herbicidal effect on E (rice flat sedge), rating 0-5", "setting": "rice flat sedge", "value": "5 (Herbicidal rate of 90% or more (almost completely withered))"}, {"measurement": "herbicidal effect rating, M: velvetleaf", "setting": "velvetleaf [12]", "value": "3 (Herbicidal rate of 40% or more and less than 70%)"}, {"measurement": "herbicidal effect rating, I: wild oat", "setting": "wild oat [13]", "value": "0 (Herbicidal rate of 5% or less (almost no effect))"}, {"measurement": "herbicidal effect on L: windgrass", "setting": "windgrass [14]", "value": "5 (Herbicidal rate of 90% or more (almost completely withered))"}, {"measurement": "herbicidal effect on D (Chinese sprangletop), rating 0-5", "setting": "Chinese sprangletop", "value": "4 (Herbicidal rate of 70% or more and less than 90%)"}, {"measurement": "herbicidal effect on J: blackgrass", "setting": "blackgrass [15]", "value": "5 (Herbicidal rate of 90% or more (almost completely withered))"}, {"measurement": "herbicidal effect on P: chickweed", "setting": "chickweed [16]", "value": "5 (Herbicidal rate of 90% or more (almost completely withered))"}, {"measurement": "herbicidal effect on M: velvetleaf", "setting": "velvetleaf [17]", "value": "5 (Herbicidal rate of 90% or more (almost completely withered))"}, {"measurement": "herbicidal effect rating, P: chickweed", "setting": "chickweed [18]", "value": "4 (Herbicidal rate of 70% or more and less than 90%)"}, {"measurement": "herbicidal effect on I: wild oat", "setting": "wild oat [19]", "value": "2 (Herbicidal rate of 20% or more and less than 40%)"}, {"measurement": "herbicidal effect rating, G: green foxtail", "setting": "green foxtail [20]", "value": "5 (Herbicidal rate of 90% or more (almost completely withered))"}, {"measurement": "herbicidal effect on K: Italian ryegrass", "setting": "Italian ryegrass [21]", "value": "5 (Herbicidal rate of 90% or more (almost completely withered))"}, {"measurement": "herbicidal effect rating, L: windgrass", "setting": "windgrass [22]", "value": "0 (Herbicidal rate of 5% or less (almost no effect))"}, {"measurement": "herbicidal effect on F: southern crabgrass", "setting": "southern crabgrass [23]", "value": "5 (Herbicidal rate of 90% or more (almost completely withered))"}, {"measurement": "herbicidal effect on G: green foxtail", "setting": "green foxtail [24]", "value": "5 (Herbicidal rate of 90% or more (almost completely withered))"}, {"measurement": "herbicidal effect rating, J: blackgrass", "setting": "blackgrass [25]", "value": "0 (Herbicidal rate of 5% or less (almost no effect))"}]}]}
